Reference: patent publication US20200223889A1, “Bicyclic Compounds Capable of Binding to Melanocortin 4 Receptor” (Novo Nordisk A/S, priority 2017, published 2020)
pEC50: −log10 of the molar value. Where two headings read alike, the source gives them in different places. Starred links: 1 amine or outer side, 2 acyl side, 3 side chain; linkers in the order of their positions; H or OH if unused. Positions of bridges follow the written chain, without caps; N, C: chain ends. Non-standard residues stand in square brackets, D forms with d. Residues, ends and D or L forms follow the SMILES beside them. Lys(CH2CO2H)2 = N[C@@H](CCCCN(CC(=O)O)CC(=O)O)C(=O)O; Phe(3,4-(OMe)2) = COc1ccc(C[C@H](N)C(=O)O)cc1OC; Hyp = O=C(O)[C@@H]1C[C@@H](O)CN1; Cit = NC(=O)NCCC[C@H](N)C(=O)O; Thz = O=C(O)[C@@H]1CSCN1; CH2 = C([*:1])[*:2]

Experiments:
human MC1R = target: T1, human MC1R (Homo sapiens, UniProt Q01726); test: Functional cAMP assay (CisBio HTRF) in BHK cells expressing human MC1R; type: cell-based
T1 construct: expressed in transfected cells
Description: In order to assess the potency of the compounds on human MC1R and human MC4R cAMP signalling was measured.
cAMP induction was measured by c-AMPdynamic2 assay, HTRF 62AM4PEC system from CisBio for the human MC1R and human MC4R according to the protocol provided by the vendor. BHK cells expressing the human MC1 or MC4 receptor were generated by stable transfection with expression vectors encoding the cDNA of either MC1R or MC4R.
In details; 25 μl compound—or standard solution were added in the respective wells. Compound was reconstituted in buffer (DMEM w/o phenol red, 10 mM
Hepes, lx Glutamine, 0.1% OV-albumin1, 1 mM IBMX) and serially diluted starting at 2 μM, 10-fold seven times. Dilutions were carried out in the same aforementioned buffer to the desired working concentration ranges (2× higher than the final concentration). 25 μl cell solution was then added and allowed to incubate for 30 min while lightly shaking, at 25° C. […] The provided components for the assay were reconstituted according to the CisBio assay protocol “3.1 supplied reagents and preparation procedure” in MilliQ purification system H2O and diluted 1:20 in lysis buffer. 25 μl cAMP-d2 and 25 μl Cryptate conjugate were added to all wells.
Plates were centrifuged at 1500 rpm for 30 sec and incubated for 1 h, lightly shaking, at 25° C. in a hotel stacker. The plates were read on Mithras LB 940 provided by Berthold Technologies The data were analysed by non-linear regression analysis of binding curves, using the Windows™ program GraphPad™ Prism (GraphPad Software, USA).
The latter is used when no full curve can be obtained in the concentration ranges indicated above.

human MC4R = target: T2, human MC4R (Homo sapiens, UniProt P32245); test: Functional cAMP assay (CisBio HTRF) in BHK cells expressing human MC4R; type: cell-based; settings: for MC1R/MC4R cAMP EC50 ratio: MC1R cAMP EC50 divided by MC4R cAMP EC50
T2 construct: expressed in transfected cells
How it was run: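 Stably transfected BHK cells expressing human MC1R or MC4R; cAMP quantified by HTRF (cAMP-d2/cryptate) after 30 min compound stimulation at 25 °C in DMEM-based buffer with 1 mM IBMX. Compounds were prepared as 10-fold serial dilutions starting at 2 μM (working solution, 2× final). Readout after 1 h at 25 °C; non-linear regression.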

[1] = BHK cells expressing human MC1R, '>' = highest dose used with no response, read-out: MC1R cAMP EC50
[2] = BHK cells expressing human MC4R, '>' = highest dose used with no response, read-out: MC4R cAMP EC50

T2 sequence (P32245 whole entry): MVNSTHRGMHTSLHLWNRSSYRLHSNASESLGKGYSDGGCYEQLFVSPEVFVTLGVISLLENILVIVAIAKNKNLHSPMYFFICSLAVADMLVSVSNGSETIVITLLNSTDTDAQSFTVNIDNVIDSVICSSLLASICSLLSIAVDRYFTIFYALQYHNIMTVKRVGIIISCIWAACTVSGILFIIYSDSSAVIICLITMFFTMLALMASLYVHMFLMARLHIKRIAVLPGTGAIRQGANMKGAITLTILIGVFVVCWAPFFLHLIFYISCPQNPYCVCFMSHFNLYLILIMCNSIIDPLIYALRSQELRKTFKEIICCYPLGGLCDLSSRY
T1 sequence (Q01726 whole entry): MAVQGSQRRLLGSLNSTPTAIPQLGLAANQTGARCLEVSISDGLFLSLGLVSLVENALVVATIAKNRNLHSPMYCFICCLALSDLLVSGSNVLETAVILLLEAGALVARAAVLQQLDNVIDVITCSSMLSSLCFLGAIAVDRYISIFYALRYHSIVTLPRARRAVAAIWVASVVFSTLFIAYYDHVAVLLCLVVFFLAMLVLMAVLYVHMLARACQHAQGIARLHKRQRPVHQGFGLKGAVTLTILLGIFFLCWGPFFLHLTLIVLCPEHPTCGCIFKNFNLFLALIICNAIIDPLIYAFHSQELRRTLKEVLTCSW

SMILES	pEC50 (human MC1R; [1])	MC1R/MC4R cAMP EC50 ratio (human MC4R)	pEC50 (human MC4R; [2])	pEC50 (human MC1R)	pEC50 (human MC4R)
C[C@@H]1NC(=O)[C@@H]2CSSC[C@H](NC(=O)[C@H](Cc3c[nH]c4ccccc34)NC(=O)[C@H](CCCNC(=N)N)NC(=O)[C@@H](Cc3ccccc3)NC(=O)[C@@H]3C[C@@H](O)CN3C1=O)C(=O)N[C@@H](C)C(=O)N1C[C@H](O)C[C@H]1C(=O)N[C@H](Cc1ccccc1)C(=O)N[C@@H](CCCNC(=N)N)C(=O)N[C@@H](Cc1c[nH]c3ccccc13)C(=O)N2 [Chem. 14, c[c[Cys-Ala-Hyp-D-Phe-Arg-Trp- Cys]-Ala-Hyp-D-Phe-Arg-Trp]] (cyclo(A[Hyp][dF]RWCA[Hyp][dF]RWC); disulfide 6-12)	< 8.00	>3			
C[C@@H]1NC(=O)[C@@H]2CSSC[C@H](NC(=O)[C@H](Cc3c[nH]c4ccccc34)NC(=O)[C@H](CCCN)NC(=O)[C@@H](Cc3ccccc3)NC(=O)[C@H](Cc3c[nH]cn3)NC1=O)C(=O)N[C@@H](C)C(=O)N[C@@H](Cc1c[nH]cn1)C(=O)N[C@H](Cc1ccccc1)C(=O)N[C@@H](CCCN)C(=O)N[C@@H](Cc1c[nH]c3ccccc13)C(=O)N2 [Chem. 16, c[c[Cys-Ala-His-D-Phe-Orn-Trp-Cys]- Ala-His-D-Phe-Orn-Trp]]	< 9.00	>5	9.68		
C[C@@H]1NC(=O)[C@@H]2CSSC[C@H](NC(=O)[C@H](Cc3c[nH]c4ccccc34)NC(=O)[C@H](CCCNC(N)=O)NC(=O)[C@@H](Cc3ccccc3)NC(=O)[C@H](Cc3c[nH]cn3)NC1=O)C(=O)N[C@@H](C)C(=O)N[C@@H](Cc1c[nH]cn1)C(=O)N[C@H](Cc1ccccc1)C(=O)N[C@@H](CCCNC(N)=O)C(=O)N[C@@H](Cc1c[nH]c3ccccc13)C(=O)N2 [Chem. 19, c[c[Cys-Ala-His-D-Phe-Cit-Trp-Cys]- Ala-His-D-Phe-Cit-Trp]]	< 9.00	>8	9.89		
C[C@@H]1NC(=O)[C@@H]2CSCSC[C@H](NC(=O)[C@H](Cc3c[nH]c4ccccc34)NC(=O)[C@H](CCCNC(=N)N)NC(=O)[C@@H](Cc3ccccc3)NC(=O)[C@@H]3C[C@@H](O)CN3C1=O)C(=O)N[C@@H](C)C(=O)N1C[C@H](O)C[C@H]1C(=O)N[C@H](Cc1ccccc1)C(=O)N[C@@H](CCCNC(=N)N)C(=O)N[C@@H](Cc1c[nH]c3ccccc13)C(=O)N2 [Chem. 23, c[c[Cys-Ala-Hyp-D-Phe-Arg-Trp- Cys]-Ala-Hyp-D-Phe-Arg-Trp]] (cyclo(A[Hyp][dF]RWCA[Hyp][dF]RWC); linker 6-12 via CH2)	< 8.00	>3			
N=C(N)NCCC[C@@H]1NC(=O)[C@@H](Cc2ccccc2)NC(=O)[C@@H]2C[C@@H](O)CN2C(=O)[C@@H]2CSSC[C@H](NC(=O)[C@H](Cc3c[nH]c4ccccc34)NC1=O)C(=O)N1C[C@H](O)C[C@H]1C(=O)N[C@H](Cc1ccccc1)C(=O)N[C@@H](CCCNC(=N)N)C(=O)N[C@@H](Cc1c[nH]c3ccccc13)C(=O)N2 [Chem. 27, c[c[Cys-Hyp-D-Phe-Arg-Trp-Cys]- Hyp-D-Phe-Arg-Trp]] (cyclo(C[Hyp][dF]RWC[Hyp][dF]RW); disulfide 1-6)	7.29	212	9.62		
C[C@@H]1NC(=O)[C@@H]2CSSC[C@H](NC(=O)[C@H](Cc3c[nH]c4ccccc34)NC(=O)[C@@H]3C[C@@H](NC(=N)N)CN3C(=O)[C@@H](Cc3ccccc3)NC(=O)[C@H](Cc3c[nH]cn3)NC1=O)C(=O)N[C@@H](C)C(=O)N[C@@H](Cc1c[nH]cn1)C(=O)N[C@H](Cc1ccccc1)C(=O)N1C[C@H](NC(=N)N)C[C@H]1C(=O)N[C@@H](Cc1c[nH]c3ccccc13)C(=O)N2 [Chem. 28, c[c[Cys-Ala-His-D-Phe-4trans- GuaPro-Trp-Cys]-Ala-His-D-Phe- 4trans-GuaPro-Trp]]	< 7.00				
C[C@@H]1NC(=O)[C@@H]2CSSC[C@H](NC(=O)[C@H](Cc3c[nH]c4ccccc34)NC(=O)[C@@H]3C[C@H](NC(=N)N)CN3C(=O)[C@@H](Cc3ccccc3)NC(=O)[C@H](Cc3c[nH]cn3)NC1=O)C(=O)N[C@@H](C)C(=O)N[C@@H](Cc1c[nH]cn1)C(=O)N[C@H](Cc1ccccc1)C(=O)N1C[C@@H](NC(=N)N)C[C@H]1C(=O)N[C@@H](Cc1c[nH]c3ccccc13)C(=O)N2 [Chem. 29, c[c[Cys-Ala-His-D-Phe-4cis-GuaPro- Trp-Cys]-Ala-His-D-Phe-4cis-GuaPro- Trp]]	< 7.00				
C[C@@H]1NC(=O)[C@@H]2CSSC[C@H](NC(=O)[C@H](Cc3c[nH]c4ccccc34)NC(=O)[C@H](CCCNC(N)=O)NC(=O)[C@@H](Cc3ccccc3)NC(=O)[C@H](Cc3c[nH]cn3)NC1=O)C(=O)N[C@@H](C)C(=O)N[C@@H](CCC(=O)O)C(=O)N[C@@H](CCC(=O)O)C(=O)N[C@@H](CCC(=O)O)C(=O)N[C@@H](Cc1c[nH]c3ccccc13)C(=O)N2 [Chem. 45, c[c[Cys-Ala-His-D-Phe-Cit-Trp-Cys]- Ala-Glu-Glu-Glu-Trp]] (cyclo(AEEEWCAH[dF][Cit]WC); disulfide 6-12)	< 7.00	>2			
N=C(N)NCCC[C@@H]1NC(=O)[C@@H](Cc2ccccc2)NC(=O)[C@H](Cc2c[nH]cn2)NC(=O)[C@@H]2CSSC[C@H](NC(=O)[C@H](Cc3c[nH]c4ccccc34)NC1=O)C(=O)N[C@@H](Cc1c[nH]cn1)C(=O)N[C@H](Cc1ccccc1)C(=O)N[C@@H](CCCNC(=N)N)C(=O)N[C@@H](Cc1c[nH]c3ccccc13)C(=O)N2 [Chem. 49, c[c[Cys-His-D-Phe-Arg-Trp-Cys]-His- D-Phe-Arg-Trp]] (cyclo(CH[dF]RWCH[dF]RW); disulfide 1-6)		>4		< 8.26	
O=C(O)CC[C@@H]1NC(=O)[C@@H]2CSSC[C@H](NC(=O)[C@H](Cc3c[nH]c4ccccc34)NC(=O)[C@H](Cc3c[nH]cn3)NC(=O)[C@@H](Cc3ccccc3)NC(=O)[C@H](Cc3c[nH]cn3)NC1=O)C(=O)N[C@@H](CCC(=O)O)C(=O)N[C@@H](Cc1c[nH]cn1)C(=O)N[C@H](Cc1ccccc1)C(=O)N[C@@H](Cc1c[nH]cn1)C(=O)N[C@@H](Cc1c[nH]c3ccccc13)C(=O)N2 [Chem. 53, c[c[Cys-Glu-His-D-Phe-His-Trp-Cys]- Glu-His-D-Phe-His-Trp]] (cyclo(CEH[dF]HWCEH[dF]HW); disulfide 1-7)	< 8.00	>1			
COc1ccc(C[C@@H]2NC(=O)[C@H](CCCNC(=N)N)NC(=O)[C@@H](Cc3ccccc3)NC(=O)[C@H](Cc3c[nH]cn3)NC(=O)[C@H](C)NC(=O)[C@@H]3CSSC[C@H](NC2=O)C(=O)N[C@@H](C)C(=O)N[C@@H](CCCCN)C(=O)N[C@@H](CCCCN)C(=O)N[C@@H](CCCCN)C(=O)N[C@@H](Cc2c[nH]c4ccccc24)C(=O)N3)cc1OC [Chem. 67, c[c[Cys-Ala-His-D-Phe-Arg-3,4- DiMeo-Phe-Cys]-Ala-Lys-Lys-Lys- Trp]] (cyclo(AH[dF]R[Phe(3,4-(OMe)2)]CAKKKWC); disulfide 6-12)	< 7.26	>18			
O=C1N[C@H]2CSSC[C@H](NC(=O)[C@H](Cc3c[nH]c4ccccc34)NC(=O)[C@H](Cc3c[nH]cn3)NC(=O)[C@@H](Cc3ccccc3)NC(=O)[C@H](Cc3c[nH]cn3)NC(=O)[C@@H]3CSCN3C2=O)C(=O)N2CSC[C@H]2C(=O)N[C@@H](Cc2c[nH]cn2)C(=O)N[C@H](Cc2ccccc2)C(=O)N[C@@H](Cc2c[nH]cn2)C(=O)N[C@H]1Cc1c[nH]c2ccccc12 [Chem. 91, c[c[Cys-THAZ-His-D-Phe-His-Trp- Cys]-THAZ-His-D-Phe-His-Trp]] (cyclo(C[Thz]H[dF]HWC[Thz]H[dF]HW); disulfide 1-7)		>14		< 8.00	
C[C@@H]1NC(=O)[C@H](C)NC(=O)[C@@H]2CSSC[C@H](NC(=O)[C@H](Cc3c[nH]c4ccccc34)NC(=O)[C@H](C)NC(=O)[C@H](CCCCN(CC(=O)O)CC(=O)O)NC1=O)C(=O)N1CSC[C@H]1C(=O)N[C@@H](Cc1c[nH]cn1)C(=O)N[C@H](Cc1ccccc1)C(=O)N[C@@H](Cc1c[nH]cn1)C(=O)N[C@@H](Cc1c[nH]c3ccccc13)C(=O)N2 [Chem. 104, c[c[Cys-THAZ-His-D-Phe-His-Trp- Cys]-Ala-Ala-Lys(CH2COOH)2-Ala- Trp]] (cyclo(AA[Lys(CH2CO2H)2]AWC[Thz]H[dF]HWC); disulfide 6-12)		167		< 7.00	9.22
C[C@@H]1NC(=O)[C@H](CCC(=O)O)NC(=O)[C@H](CCC(=O)O)NC(=O)[C@H](C)NC(=O)[C@@H]2CSSC[C@H](NC(=O)[C@H](Cc3c[nH]c4ccccc34)NC1=O)C(=O)N1CSC[C@H]1C(=O)N[C@@H](Cc1c[nH]cn1)C(=O)N[C@H](Cc1ccccc1)C(=O)N[C@@H](Cc1c[nH]cn1)C(=O)N[C@@H](Cc1c[nH]c3ccccc13)C(=O)N2 [Chem. 105, c[c[Cys-THAZ-His-D-Phe-His-Trp- Cys]-Ala-Glu-Glu-Ala-Trp]] (cyclo(AEEAWC[Thz]H[dF]HWC); disulfide 6-12)		>15		< 7.00	
